Test results published in ChEMBL document CHEMBL1154915, “Selection of inhibitory peptides for Aurora-A kinase from a phage-displayed library of helix-loop-helix peptides” (Bioorg Med Chem Lett, 2010).
Active and inactive are the calls of the source. How the calls were made is not given here. Residues, ends and D or L forms follow the SMILES beside them.

What follows are compounds tested against T1, Aurora kinase A (Homo sapiens) (UniProt O14965) (assay: Binding affinity to GST-tagged Aurora A after 1 hr by ELISA).
T1 sequence (whole entry): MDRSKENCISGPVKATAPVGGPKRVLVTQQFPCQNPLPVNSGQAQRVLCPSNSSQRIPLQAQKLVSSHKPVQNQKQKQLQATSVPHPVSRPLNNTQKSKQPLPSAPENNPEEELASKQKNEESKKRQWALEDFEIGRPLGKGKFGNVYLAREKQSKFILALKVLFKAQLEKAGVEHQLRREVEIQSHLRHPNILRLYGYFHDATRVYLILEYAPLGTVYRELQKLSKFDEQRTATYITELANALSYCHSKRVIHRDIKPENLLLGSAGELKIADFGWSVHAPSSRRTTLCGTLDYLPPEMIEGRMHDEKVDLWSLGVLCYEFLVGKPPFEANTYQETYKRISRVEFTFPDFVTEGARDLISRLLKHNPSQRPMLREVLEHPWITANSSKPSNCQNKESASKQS

Activity, active:
H-AELAALEAELAALEGLVMGVKAFLGKLAALKAKLAALKA-OH, H-AELAALEAELAALEGNISRFWVLAGKLAALKAKLAALKA-OH, H-AELAALEAELAALEGSGMLAHFSWGKLAALKAKLAALKA-OH, H-AELAALEAELAPLEGYVSAGSQLWDGKLAALKAKLAALKA-OH, H-AELAALEAELAALEGRDQVMWFLHGKLAALKAKLAALKA-OH, H-AELAALEAELAALEGWLIELLWIVGKLAALKAKLAALKA-OH, H-AELAALEAELAALEGQLWMLNTILGKLAALKAKLAALKA-OH, CC[C@H](C)[C@H](NC(=O)[C@H](CCCNC(=N)N)NC(=O)[C@H](CCCNC(=N)N)NC(=O)[C@H](CO)NC(=O)[C@H](C)NC(=O)CNC(=O)[C@H](CCC(=O)O)NC(=O)[C@H](CC(C)C)NC(=O)[C@H](C)NC(=O)[C@H](C)NC(=O)[C@H](CC(C)C)NC(=O)[C@H](CCC(=O)O)NC(=O)[C@H](C)NC(=O)[C@H](CCC(=O)O)NC(=O)[C@@H]1CCCN1C(=O)[C@H](C)NC(=O)[C@H](C)NC(=O)[C@H](CC(C)C)NC(=O)[C@H](CCC(=O)O)NC(=O)[C@@H](C)N)C(=O)N[C@@H](CS)C(=O)N[C@@H](CS)C(=O)N[C@@H](CO)C(=O)N[C@@H](Cc1c[nH]c2ccccc12)C(=O)NCC(=O)N[C@@H](CCCCN)C(=O)N[C@@H](CC(C)C)C(=O)N[C@@H](C)C(=O)N[C@@H](C)C(=O)N[C@@H](CC(C)C)C(=O)N[C@@H](CCCCN)C(=O)N[C@@H](C)C(=O)N[C@@H](CCCCN)C(=O)N[C@@H](CC(C)C)C(=O)N[C@@H](C)C(=O)N[C@@H](C)C(=O)N[C@@H](CC(C)C)C(=O)N[C@@H](CCCCN)C(=O)N[C@@H](C)C(=O)O, H-AELAALEAELAALEGGKVAAWGFWGKLAALKAKLAALKA-OH, H-AELAALEAELAALEGQGRADMSILGKLAALKAKLAALKA-OH, H-AELAALEAELAALEGSRNQMYWLYGKLAALKAKLAALKA-OH, CC(C)C[C@H](NC(=O)[C@H](C)NC(=O)[C@H](C)NC(=O)[C@H](CC(C)C)NC(=O)[C@H](CCC(=O)O)NC(=O)[C@H](C)NC(=O)[C@H](CCC(=O)O)NC(=O)[C@H](CC(C)C)NC(=O)[C@H](C)NC(=O)[C@H](C)NC(=O)[C@H](CC(C)C)NC(=O)[C@H](CCC(=O)O)NC(=O)[C@@H](C)N)C(=O)N[C@@H](CCC(=O)O)C(=O)NCC(=O)N[C@@H](CCCNC(=N)N)C(=O)N1CCC[C@H]1C(=O)N[C@@H](Cc1ccccc1)C(=O)N[C@@H](Cc1c[nH]c2ccccc12)C(=O)N[C@@H](CC(C)C)C(=O)N[C@@H](CC(=O)O)C(=O)N[C@@H](CCCNC(=N)N)C(=O)N[C@@H](CC(C)C)C(=O)N[C@@H](CC(C)C)C(=O)NCC(=O)N[C@@H](CCCCN)C(=O)N[C@@H](CC(C)C)C(=O)N[C@@H](C)C(=O)N[C@@H](C)C(=O)N[C@@H](CC(C)C)C(=O)N[C@@H](CCCCN)C(=O)N[C@@H](C)C(=O)N[C@@H](CCCCN)C(=O)N[C@@H](CC(C)C)C(=O)N[C@@H](C)C(=O)N[C@@H](C)C(=O)N[C@@H](CC(C)C)C(=O)N[C@@H](CCCCN)C(=O)N[C@@H](C)C(=O)O, H-AELAALEAELAALEGMRDWLIIGFGKLAALKAKLAALKA-OH, H-AELAALEAELAAPEGSQERKGVLAGKLAALKAKLAALKA-OH, H-AELAALEAELAALEGGYERRGWGVTGKLAALKAKLAALKA-OH, H-AELAALEAELAALEGRRAVWPFGFGKLAALKAKLAALKA-OH, H-AELAALEAELAALEGDVAVAVRWDGKLAALKAKLAALKA-OH, CC[C@H](C)[C@H](NC(=O)[C@H](CCCNC(=N)N)NC(=O)CNC(=O)[C@H](CC(C)C)NC(=O)[C@H](CC(C)C)NC(=O)[C@@H]1CCCN1C(=O)[C@H](CO)NC(=O)[C@H](Cc1c[nH]c2ccccc12)NC(=O)CNC(=O)[C@H](CCC(=O)O)NC(=O)[C@H](CC(C)C)NC(=O)[C@H](C)NC(=O)[C@H](C)NC(=O)[C@H](CC(C)C)NC(=O)[C@H](CCC(=O)O)NC(=O)[C@H](C)NC(=O)[C@H](CCC(=O)O)NC(=O)[C@H](CC(C)C)NC(=O)[C@H](C)NC(=O)[C@H](C)NC(=O)[C@H](CC(C)C)NC(=O)[C@H](CCC(=O)O)NC(=O)[C@@H](C)N)C(=O)N[C@@H](CC(C)C)C(=O)NCC(=O)N[C@@H](CCCCN)C(=O)N[C@@H](CC(C)C)C(=O)N[C@@H](C)C(=O)N[C@@H](C)C(=O)N[C@@H](CC(C)C)C(=O)N[C@@H](CCCCN)C(=O)N[C@@H](C)C(=O)N[C@@H](CCCCN)C(=O)N[C@@H](CC(C)C)C(=O)N[C@@H](C)C(=O)N[C@@H](C)C(=O)N[C@@H](CC(C)C)C(=O)N[C@@H](CCCCN)C(=O)N[C@@H](C)C(=O)O, CC(C)C[C@H](NC(=O)[C@H](C)NC(=O)[C@H](C)NC(=O)[C@H](CC(C)C)NC(=O)[C@H](CCC(=O)O)NC(=O)[C@H](C)NC(=O)[C@H](CCC(=O)O)NC(=O)[C@H](CC(C)C)NC(=O)[C@H](C)NC(=O)[C@H](C)NC(=O)[C@H](CC(C)C)NC(=O)[C@H](CCC(=O)O)NC(=O)[C@@H](C)N)C(=O)N[C@@H](CCC(=O)O)C(=O)NCC(=O)N[C@H](C(=O)N[C@@H](CC(C)C)C(=O)N[C@H](C(=O)N[C@H](C(=O)N[C@@H](CO)C(=O)N[C@@H](Cc1c[nH]c2ccccc12)C(=O)N[C@@H](CC(=O)O)C(=O)N1CCC[C@H]1C(=O)N[C@@H](Cc1c[nH]c2ccccc12)C(=O)NCC(=O)N[C@@H](CCCCN)C(=O)N[C@@H](CC(C)C)C(=O)N[C@@H](C)C(=O)N[C@@H](C)C(=O)N[C@@H](CC(C)C)C(=O)N[C@@H](CCCCN)C(=O)N[C@@H](C)C(=O)N[C@@H](CCCCN)C(=O)N[C@@H](CC(C)C)C(=O)N[C@@H](C)C(=O)N[C@@H](C)C(=O)N[C@@H](CC(C)C)C(=O)N[C@@H](CCCCN)C(=O)N[C@@H](C)C(=O)O)C(C)C)C(C)C)[C@H](C)O, H-AELAALEAELAALEGLQQVLSYIFGKLAALKAKLAALKA-OH, CC(C)C[C@H](NC(=O)[C@H](C)NC(=O)[C@H](C)NC(=O)[C@H](CC(C)C)NC(=O)[C@H](CCC(=O)O)NC(=O)[C@H](C)NC(=O)[C@H](CCC(=O)O)NC(=O)[C@H](CC(C)C)NC(=O)[C@H](C)NC(=O)[C@H](C)NC(=O)[C@H](CC(C)C)NC(=O)[C@H](CCC(=O)O)NC(=O)[C@H](C)N)C(=O)N[C@@H](CCC(=O)O)C(=O)NCC(=O)N[C@@H](CS)C(=O)N[C@H](C(=O)N[C@@H](CO)C(=O)N[C@H](C(=O)N[C@@H](Cc1ccc(O)cc1)C(=O)N[C@@H](CS)C(=O)N[C@H](C(=O)N[C@H](C(=O)N[C@@H](CO)C(=O)NCC(=O)N[C@@H](CCCCN)C(=O)N[C@@H](CC(C)C)C(=O)N[C@@H](C)C(=O)N[C@@H](C)C(=O)N[C@@H](CC(C)C)C(=O)N[C@@H](CCCCN)C(=O)N[C@@H](C)C(=O)N[C@@H](CCCCN)C(=O)N[C@@H](CC(C)C)C(=O)N[C@@H](C)C(=O)N[C@@H](C)C(=O)N[C@@H](CC(C)C)C(=O)N[C@@H](CCCCN)C(=O)N[C@@H](C)C(=O)O)C(C)C)[C@@H](C)O)C(C)C)[C@@H](C)O (H-AELAALEAELAALEGCTSVYCTVSGKLAALKAKLAALKA-OH), H-AELAALEAELAALEGRSEDPVCSWGKLAALKAKLAALKA-OH, H-AELAALEAELAALEGGSPRWYELLGKLAALKAKLAALKA-OH, H-AELAALEAELAALEGQVGSTRLLSGKLAALKAKLAALKA-OH, H-AELAALEAELAALEGGLSEVHGLSGKLAALKAKLAALKA-OH
